Laboratory results reported in PubChem BioAssay (NCI).
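How tested: cells in 96-well plates exposed to compound for 48 hours at five concentrations. At the TGI there is no net growth.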

Legend:
Assay in all cases: inhibition of tumour cell growth, NCI panel, 48 h
MOLT-4 leukemia = test system: MOLT-4 leukemia
HCC-2998 colon = test system: HCC-2998 colon
CCRF-CEM leukemia = test system: CCRF-CEM leukemia
U251 CNS = test system: U251 CNS
SK-MEL-2 melanoma = test system: SK-MEL-2 melanoma
RXF-631 renal = test system: RXF-631 renal
SN12C renal = test system: SN12C renal
HT29 colon = test system: HT29 colon
UO-31 renal = test system: UO-31 renal
NCI-H460 lung = test system: NCI-H460 lung
MALME-3M melanoma = test system: MALME-3M melanoma
M19-MEL melanoma = test system: M19-MEL melanoma
EKVX NSCLC = test system: EKVX NSCLC
NCI-H23 lung = test system: NCI-H23 lung
DMS 273 small cell lung = test system: DMS 273 small cell lung
OVCAR-3 ovarian = test system: OVCAR-3 ovarian
OVCAR-5 ovarian = test system: OVCAR-5 ovarian
HCT-15 colon = test system: HCT-15 colon
UACC-257 melanoma = test system: UACC-257 melanoma
OVCAR-4 ovarian = test system: OVCAR-4 ovarian
K-562 leukemia = test system: K-562 leukemia
A549 NSCLC = test system: A549 NSCLC
COLO 205 colon = test system: COLO 205 colon
CAKI-1 renal = test system: CAKI-1 renal
ACHN renal = test system: ACHN renal
786-0 renal = test system: 786-0 renal
SK-MEL-28 melanoma = test system: SK-MEL-28 melanoma
SW-620 colon = test system: SW-620 colon
LXFL 529 NSCLC = test system: LXFL 529 NSCLC
DMS 114 small cell lung = test system: DMS 114 small cell lung
SF-295 CNS = test system: SF-295 CNS
LOX IMVI melanoma = test system: LOX IMVI melanoma
KM12 colon = test system: KM12 colon
SK-OV-3 ovarian = test system: SK-OV-3 ovarian
SNB-19 CNS = test system: SNB-19 CNS
UACC-62 melanoma = test system: UACC-62 melanoma
HOP-62 NSCLC = test system: HOP-62 NSCLC
NCI-H226 lung = test system: NCI-H226 lung
HCT-116 colon = test system: HCT-116 colon
KM20L2 colon = test system: KM20L2 colon
IGROV1 ovarian = test system: IGROV1 ovarian
SR leukemia = test system: SR leukemia
SF-268 CNS = test system: SF-268 CNS
M14 melanoma = test system: M14 melanoma
DLD-1 colon = test system: DLD-1 colon
HL-60(TB) leukemia = test system: HL-60(TB) leukemia
NCI-H522 lung = test system: NCI-H522 lung
SNB-75 CNS = test system: SNB-75 CNS
HOP-18 NSCLC = test system: HOP-18 NSCLC
SK-MEL-5 melanoma = test system: SK-MEL-5 melanoma
OVCAR-8 ovarian = test system: OVCAR-8 ovarian
TK-10 renal = test system: TK-10 renal
RXF 393 renal = test system: RXF 393 renal
SF-539 CNS = test system: SF-539 CNS
HOP-92 NSCLC = test system: HOP-92 NSCLC
RPMI-8226 leukemia = test system: RPMI-8226 leukemia
XF 498 CNS = test system: XF 498 CNS
A498 renal = test system: A498 renal

Measured: TGI

COc1ccc(C(=O)O)c(Cc2cccc3ccccc23)c1
not listed: SF-539 CNS | HOP-92 NSCLC | RPMI-8226 leukemia | XF 498 CNS | A498 renal
> 100 µM: all other assays above

COC(=O)CSc1n[nH]c(-c2ccc(O)c([N+](=O)[O-])c2)n1
not listed: M19-MEL melanoma | COLO 205 colon | DMS 114 small cell lung | KM12 colon | SK-OV-3 ovarian | HOP-62 NSCLC | NCI-H522 lung | HOP-18 NSCLC
> 100 µM: all other assays above
